From PMC11089506 (Journal of Medicinal Chemistry, 2024)
Structures can show the parent of a compound that is named as a salt. Where two headings read alike, the source gives them in different places.

Legend:
[1] = target: T1, M2 (muscarinic receptor) (Homo sapiens, UniProt P08172); test: radioligand competition binding, [3H]AF-DX 384
T1 construct: Eurofins

[2] = target: Androgen receptor (NHR) (Homo sapiens, UniProt P10275); details: estimated from the % inhibition data
[3] = target: T2, human 5-HT2BR (Homo sapiens, UniProt P41595); test: Calcium No Wash PLUS assay, 5-HT2BR-HEK293 cells (Eurofins); format: cell-based; details: fluorescence-based Ca2+ imaging assay
T2 construct: host or cells: HEK293 (membrane homogenates)

[4] = target: T3, GABAB(1a,2) receptor (Homo sapiens, UniProt Q9UBS5); test: radioligand competition binding, [3H]CGP-54626
T3 construct: Eurofins

[5] = target: T4, Bradykinin receptor B2 (Homo sapiens, UniProt P30411); test: radioligand competition binding, [3H]Bradykinin
T4 construct: Eurofins

[6] = target: T5, Tachykinin receptor NK2 (Homo sapiens, UniProt P21452); test: radioligand competition binding, [125I]Neurokinin A
T5 construct: Eurofins (contract laboratory)

[7] = target: T6, Neuropeptide Y receptor Y1 (Homo sapiens, UniProt P25929); test: radioligand competition binding, [125I]Peptide YY
T6 construct: Eurofins

[8] = target: T7, α2A (adrenergic receptor) (Homo sapiens, UniProt P08913); test: radioligand competition binding, [3H]RX 821002
T7 construct: Eurofins
T7 sequence (P08913 1-465): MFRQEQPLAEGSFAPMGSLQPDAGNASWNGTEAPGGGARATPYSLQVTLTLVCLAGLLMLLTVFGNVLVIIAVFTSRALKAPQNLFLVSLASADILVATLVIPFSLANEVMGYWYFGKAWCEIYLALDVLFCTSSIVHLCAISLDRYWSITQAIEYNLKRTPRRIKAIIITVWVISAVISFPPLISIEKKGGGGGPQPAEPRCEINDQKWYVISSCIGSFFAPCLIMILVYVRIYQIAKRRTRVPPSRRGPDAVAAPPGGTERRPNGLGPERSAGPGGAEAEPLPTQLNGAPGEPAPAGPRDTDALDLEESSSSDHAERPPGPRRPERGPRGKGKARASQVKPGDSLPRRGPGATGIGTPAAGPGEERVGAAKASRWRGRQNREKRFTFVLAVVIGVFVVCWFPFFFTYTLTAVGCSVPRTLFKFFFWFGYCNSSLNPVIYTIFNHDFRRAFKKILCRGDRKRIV

[9] = target: human 5-HT2CR (Homo sapiens, UniProt P28335); test: Ca2+/Fluo-4 assay, antagonist mode (5-HT EC90 as agonist), stable 5-HT2CR-HEK293 cells; details: 5-HT2CR pIC50 ± S.E.M., Table S2
[10] = target: T8, Nicotinic acetylcholine receptor (muscle-type) (Homo sapiens, UniProt P02708+P07510+Q07001); test: radioligand competition binding, [125I]α-Bungarotoxin
T8 construct: Eurofins

[11] = target: T9, Endothelin receptor ETB (Homo sapiens, UniProt P24530); test: radioligand competition binding, [125I]Endothelin-1
T9 construct: Eurofins

[12] = target: T10, H3 (histaminergic receptor) (Homo sapiens, UniProt Q9Y5N1); test: radioligand competition binding, [3H]N-α-methyl-histamine
T10 construct: Eurofins

[13] = target: GABA transporter (Rattus norvegicus, UniProt P23978); test: biochemical; details: read-out: % inhibition of the specific radioligand binding
[14] = LogP / log D determination, 1-octanol/phosphate buffer; format: physicochemical
Procedure: LogP Log D log D log D log D log D log D log D
Phosphate buffer (PB) with the pH ranging from 1.8 to 12.0 and Octanol saturated with water was used. 2 μL of 10 mM DMSO stock solution of test and control compounds was aliquoted into tubes in duplicate. Added 149 μL of PB (pH 1.8, 2.5, 4.5, 7.4, 9.5,11.0 and 12.0)-Saturated […]
was added, respectively. Each of the tubes was vigorously mixed for 2 minutes and then shook for 1 hour at a speed of 800 rpm at room temperature. Following centrifugation at 4000 rpm for 5 minutes at room temperature, appropriate volume of buffer layer samples and 1-octanol layer samples was aliquoted. These samples were diluted and detected by using LC -MS/MS method without running a calibration curve.
The log D values were calculated with the following equation:
(also on this page, place not known: temperature , 1 -octanol Log Doctanol/buffer = log( Mean Octanol Layer Peak Area Ratio ∗ Octanol Layer Dilution Factor Mean Buffer Layer Peak Area Ratio ∗ Buffer Layer Dilution Factor) […]
(1 picture or pasted object on this page, not shown here)

[15] = target: T11, D1 (dopaminergic receptor) (Homo sapiens, UniProt P21728); test: radioligand competition binding, [3H]SCH 23390; details: read-out: % inhibition of the specific radioligand binding
T11 construct: Eurofins

[16] = target: T12, Adenosine receptor A1 (Homo sapiens, UniProt P30542); test: radioligand competition binding, [3H]DPCPX
T12 construct: Eurofins

[17] = target: T13, α1D (adrenergic receptor) (Homo sapiens, UniProt P25100); test: radioligand competition binding, [3H]Prazosin
T13 construct: Eurofins

[18] = estimated from the % inhibition data
[19] = read-out: % inhibition of the specific radioligand binding

SMILES: COc1cc(C(F)(F)F)c(OC)cc1[C@@H]1CCCNC1 [(S)-11, 3-(2,5-Dimethoxy-4-(trifluoromethyl)phenyl)piperidine Hydrochloride]
- IC50 [1, 18]: ~10 µM
- inhibition at 10 µM [1, 19]: 40%
- IC50 [2]: > 10 µM
- EC50 [3]: 0.19 µM
- IC50 [4, 18]: > 10 µM
- inhibition at 10 µM [4, 19]: 6%
- IC50 [5, 18]: > 10 µM
- inhibition at 10 µM [5, 19]: 18%
- IC50 [6, 18]: > 10 µM
- inhibition at 10 µM [6, 19]: 1%
- IC50 [7, 18]: > 10 µM
- inhibition at 10 µM [7, 19]: -4%
- IC50 [8, 18]: > 10 µM
- inhibition at 1 µM [8, 19]: 1%
- inhibition at 10 µM [8, 19]: 34%
- IC50 [9]: 0.316 µM
- IC50 [10]: > 10 µM
- inhibition at 10 µM [10, 19]: 3%
- IC50 [11, 18]: > 10 µM
- inhibition at 10 µM [11, 19]: -6%
- IC50 [12, 18]: > 10 µM
- inhibition at 10 µM [12, 19]: 11%
- inhibition at 10 µM [13]: 29%
- logP at 1 h ([14]; main text and Figure 6): 3.45
- logD ([14]; pH 1.8, read-out: Log D (pH 1.8)): -0.815
- logD ([14]; pH 2.5, read-out: log D (pH2.5)): -0.536
- logD ([14]; pH 4.5, read-out: log D (pH4.5)): -0.376
- logD ([14]; pH 7.4, read-out: log D (pH7.4)): 0.659
- logD ([14]; pH 9.5, read-out: log D (pH9.5)): 1.99
- logD ([14]; pH 11.0, read-out: log D (pH11.0)): 3.4
- logD ([14]; pH 12.0, read-out: log D (pH12.0)): 3.5
- inhibition at 10 µM [15]: 30%
- IC50 [16, 18]: > 10 µM
- inhibition at 10 µM [16, 19]: 4%
- IC50 [17, 18]: > 10 µM
- inhibition at 10 µM [17, 19]: 27%
